Measurements from ChEMBL document CHEMBL3525977, “Differential impact of P-glycoprotein (ABCB1) and breast cancer resistance protein (ABCG2) on axitinib brain accumulation and oral plasma pharmacokinetics” (Drug Metab Dispos, 2011).

Key:
[1] = Drug level in brain of Abcb1a/1b;Abcg2 (-/-) FVB mouse at 10 mg/kg, po after 4 hrs by liquid chromatography-tandem mass spectrometry; assay type: ADME, organism-based; design: dose 10 mg/kg, route oral; details: read-out: Drug uptake
[2] = Drug level in brain of Abcb1a/1b (-/-) FVB mouse at 10 mg/kg, po after 4 hrs by liquid chromatography-tandem mass spectrometry; assay type: ADME, organism-based; design: dose 10 mg/kg, route oral; details: read-out: Drug uptake
[3] = Drug level in brain of Abcg2 (-/-) FVB mouse at 10 mg/kg, po after 4 hrs by liquid chromatography-tandem mass spectrometry; assay type: ADME, organism-based; design: dose 10 mg/kg, route oral; details: read-out: Drug uptake
[4] = Drug level in brain of FVB mouse at 10 mg/kg, po after 4 hrs by liquid chromatography-tandem mass spectrometry; assay type: ADME, organism-based; design: dose 10 mg/kg, route oral; details: read-out: Drug uptake
[5] = AUC (0 to 4 hrs) in Abcb1a/1b;Abcg2 (-/-) FVB mouse plasma at 10 mg/kg, po by liquid chromatography-tandem mass spectrometry; assay type: ADME, organism-based; design: time < 4 hr, dose 10 mg/kg, route oral
[6] = AUC (0 to 4 hrs) in Abcb1a/1b (-/-) FVB mouse plasma at 10 mg/kg, po by liquid chromatography-tandem mass spectrometry; assay type: ADME, organism-based; design: time < 4 hr, dose 10 mg/kg, route oral
[7] = AUC (0 to 4 hrs) in FVB mouse plasma at 10 mg/kg, po by liquid chromatography-tandem mass spectrometry; assay type: ADME, organism-based; design: time < 4 hr, dose 10 mg/kg, route oral
[8] = AUC (0 to 4 hrs) in Abcg2 (-/-) FVB mouse plasma at 10 mg/kg, po by liquid chromatography-tandem mass spectrometry; assay type: ADME, organism-based; design: time < 4 hr, dose 10 mg/kg, route oral
[9] = test system: Brain; experiment: Drug level in brain of Abcg2 (-/-) FVB mouse at 10 mg/kg, po after 1 hr by liquid chromatography-tandem mass spectrometry relative to wild type FVB mouse; assay type: ADME, organism-based; design: dose 10 mg/kg, route oral; details: in vivo
[10] = test system: Brain; experiment: Drug level in brain of Abcb1a/1b (-/-) FVB mouse at 10 mg/kg, po after 1 hr by liquid chromatography-tandem mass spectrometry relative to wild type FVB mouse; assay type: ADME, organism-based; design: dose 10 mg/kg, route oral; details: in vivo
[11] = test system: Brain; experiment: Drug level in brain of Abcb1a/1b;Abcg2 (-/-) FVB mouse at 10 mg/kg, po after 1 hr by liquid chromatography-tandem mass spectrometry relative to wild type FVB mouse; assay type: ADME, organism-based; design: dose 10 mg/kg, route oral; details: in vivo
[12] = test system: Brain; experiment: Drug level in brain of Abcg2 (-/-) FVB mouse at 10 mg/kg, po after 4 hrs by liquid chromatography-tandem mass spectrometry relative to wild type FVB mouse; assay type: ADME, organism-based; design: dose 10 mg/kg, route oral; details: in vivo
[13] = test system: Brain; experiment: Drug level in brain of Abcb1a/1b (-/-) FVB mouse at 10 mg/kg, po after 4 hrs by liquid chromatography-tandem mass spectrometry relative to wild type FVB mouse; assay type: ADME, organism-based; design: dose 10 mg/kg, route oral; details: in vivo
[14] = test system: Brain; experiment: Drug level in brain of Abcb1a/1b;Abcg2 (-/-) FVB mouse at 10 mg/kg, po after 4 hrs by liquid chromatography-tandem mass spectrometry relative to wild type FVB mouse; assay type: ADME, organism-based; design: dose 10 mg/kg, route oral; details: in vivo
[15] = Drug transport in MDCK2 cells at 1 uM after 1 to 4 hrs in presence of 5 uM ABCB1 inhibitor zosuquidar; assay type: ADME, cell-based, Canis lupus familiaris; details: dog, mdck-ii
[16] = Efflux ratio in wild type MDCK2 cells at 1 uM after 1 to 4 hrs; assay type: ADME, cell-based, Canis lupus familiaris, MDCK-II; details: dog, MDCK
[17] = Drug transport in MDCK2 cells at 1 uM after 1 to 4 hrs in presence of 5 uM ABCB1/ABCG2 inhibitor elacridar; assay type: ADME, cell-based, Canis lupus familiaris; details: dog, mdck-ii
[18] = molecular target: ABCB1 (Homo sapiens, UniProt P08183); experiment: Drug transport in MDCK2 cells expressing human ABCB1 assessed as transporter-mediated efflux ratio at 1 uM after 1 to 4 hrs; assay type: ADME, cell-based; details: MDCK-MDR1
[19] = molecular target: T1, ABCG2 (Homo sapiens, UniProt Q9UNQ0); experiment: Drug transport in MDCK2 cells expressing human ABCG2 assessed as transporter-mediated efflux ratio at 1 uM after 1 to 4 hrs; assay type: ADME, cell-based
T1 sequence (Q9UNQ0 whole entry): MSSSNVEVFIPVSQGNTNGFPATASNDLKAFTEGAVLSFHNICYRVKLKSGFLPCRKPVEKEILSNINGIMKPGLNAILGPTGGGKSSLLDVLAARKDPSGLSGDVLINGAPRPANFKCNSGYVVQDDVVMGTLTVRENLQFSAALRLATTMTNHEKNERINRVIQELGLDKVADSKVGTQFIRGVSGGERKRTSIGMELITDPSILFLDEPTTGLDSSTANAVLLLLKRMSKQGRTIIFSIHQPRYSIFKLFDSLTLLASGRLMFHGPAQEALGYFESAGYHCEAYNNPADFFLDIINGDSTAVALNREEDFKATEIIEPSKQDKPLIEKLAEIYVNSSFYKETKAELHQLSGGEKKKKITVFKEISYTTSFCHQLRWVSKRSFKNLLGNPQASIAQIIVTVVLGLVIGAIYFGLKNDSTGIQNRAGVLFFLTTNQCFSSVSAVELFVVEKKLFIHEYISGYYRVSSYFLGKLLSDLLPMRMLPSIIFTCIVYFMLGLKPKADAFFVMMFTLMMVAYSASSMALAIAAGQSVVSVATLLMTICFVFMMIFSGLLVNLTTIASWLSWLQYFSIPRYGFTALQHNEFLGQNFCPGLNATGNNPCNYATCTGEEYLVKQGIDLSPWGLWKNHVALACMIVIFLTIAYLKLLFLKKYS

[20] = molecular target: T2, Broad substrate specificity ATP-binding cassette transporter ABCG2 (Mus musculus, UniProt Q7TMS5); experiment: Drug transport in MDCK2 cells expressing mouse ABCG2 assessed as transporter-mediated efflux ratio at 1 uM after 1 to 4 hrs; assay type: ADME, cell-based; details: mdck2, 1 µM
T2 sequence (Q7TMS5 whole entry): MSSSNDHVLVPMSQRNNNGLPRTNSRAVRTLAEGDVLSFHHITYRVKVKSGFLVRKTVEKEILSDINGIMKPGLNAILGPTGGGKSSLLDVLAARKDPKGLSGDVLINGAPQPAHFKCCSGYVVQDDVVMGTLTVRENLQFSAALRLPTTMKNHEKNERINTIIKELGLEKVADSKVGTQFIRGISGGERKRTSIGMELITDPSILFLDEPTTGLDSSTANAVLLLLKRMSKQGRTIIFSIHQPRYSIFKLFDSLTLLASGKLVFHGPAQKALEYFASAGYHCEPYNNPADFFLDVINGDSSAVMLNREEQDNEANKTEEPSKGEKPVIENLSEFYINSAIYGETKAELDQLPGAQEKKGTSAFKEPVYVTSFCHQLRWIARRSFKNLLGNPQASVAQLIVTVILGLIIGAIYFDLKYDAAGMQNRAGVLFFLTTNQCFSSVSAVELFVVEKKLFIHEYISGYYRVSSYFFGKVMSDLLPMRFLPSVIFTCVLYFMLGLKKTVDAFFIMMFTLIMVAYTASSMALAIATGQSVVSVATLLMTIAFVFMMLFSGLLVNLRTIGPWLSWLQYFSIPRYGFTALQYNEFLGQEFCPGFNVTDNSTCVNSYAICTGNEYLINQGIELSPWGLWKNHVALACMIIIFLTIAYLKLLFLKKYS

[21] = AUC (0 to 1 hr) in FVB mouse plasma at 10 mg/kg, po by liquid chromatography-tandem mass spectrometry; assay type: ADME, organism-based; design: time < 1 hr, dose 10 mg/kg, route oral
[22] = AUC (0 to 1 hr) in Abcg2 (-/-) FVB mouse plasma at 10 mg/kg, po by liquid chromatography-tandem mass spectrometry; assay type: ADME, organism-based; design: time < 1 hr, dose 10 mg/kg, route oral
[23] = AUC (0 to 1 hr) in Abcb1a/1b (-/-) FVB mouse plasma at 10 mg/kg, po by liquid chromatography-tandem mass spectrometry; assay type: ADME, organism-based; design: time < 1 hr, dose 10 mg/kg, route oral
[24] = AUC (0 to 1 hr) in Abcb1a/1b;Abcg2 (-/-) FVB mouse plasma at 10 mg/kg, po by liquid chromatography-tandem mass spectrometry; assay type: ADME, organism-based; design: time < 1 hr, dose 10 mg/kg, route oral
[25] = Drug level in brain of Abcg2 (-/-) FVB mouse at 10 mg/kg, po after 1 hr by liquid chromatography-tandem mass spectrometry; assay type: ADME, organism-based; design: dose 10 mg/kg, route oral; details: read-out: Drug uptake
[26] = Drug level in brain of Abcb1a/1b (-/-) FVB mouse at 10 mg/kg, po after 1 hr by liquid chromatography-tandem mass spectrometry; assay type: ADME, organism-based; design: dose 10 mg/kg, route oral; details: read-out: Drug uptake
[27] = Drug level in brain of Abcb1a/1b;Abcg2 (-/-) FVB mouse at 10 mg/kg, po after 1 hr by liquid chromatography-tandem mass spectrometry; assay type: ADME, organism-based; design: dose 10 mg/kg, route oral; details: read-out: Drug uptake
[28] = Drug level in brain of FVB mouse at 10 mg/kg, po after 1 hr by liquid chromatography-tandem mass spectrometry; assay type: ADME, organism-based; design: dose 10 mg/kg, route oral; details: read-out: Drug uptake

Chain of ABCB1 (P08183 whole entry): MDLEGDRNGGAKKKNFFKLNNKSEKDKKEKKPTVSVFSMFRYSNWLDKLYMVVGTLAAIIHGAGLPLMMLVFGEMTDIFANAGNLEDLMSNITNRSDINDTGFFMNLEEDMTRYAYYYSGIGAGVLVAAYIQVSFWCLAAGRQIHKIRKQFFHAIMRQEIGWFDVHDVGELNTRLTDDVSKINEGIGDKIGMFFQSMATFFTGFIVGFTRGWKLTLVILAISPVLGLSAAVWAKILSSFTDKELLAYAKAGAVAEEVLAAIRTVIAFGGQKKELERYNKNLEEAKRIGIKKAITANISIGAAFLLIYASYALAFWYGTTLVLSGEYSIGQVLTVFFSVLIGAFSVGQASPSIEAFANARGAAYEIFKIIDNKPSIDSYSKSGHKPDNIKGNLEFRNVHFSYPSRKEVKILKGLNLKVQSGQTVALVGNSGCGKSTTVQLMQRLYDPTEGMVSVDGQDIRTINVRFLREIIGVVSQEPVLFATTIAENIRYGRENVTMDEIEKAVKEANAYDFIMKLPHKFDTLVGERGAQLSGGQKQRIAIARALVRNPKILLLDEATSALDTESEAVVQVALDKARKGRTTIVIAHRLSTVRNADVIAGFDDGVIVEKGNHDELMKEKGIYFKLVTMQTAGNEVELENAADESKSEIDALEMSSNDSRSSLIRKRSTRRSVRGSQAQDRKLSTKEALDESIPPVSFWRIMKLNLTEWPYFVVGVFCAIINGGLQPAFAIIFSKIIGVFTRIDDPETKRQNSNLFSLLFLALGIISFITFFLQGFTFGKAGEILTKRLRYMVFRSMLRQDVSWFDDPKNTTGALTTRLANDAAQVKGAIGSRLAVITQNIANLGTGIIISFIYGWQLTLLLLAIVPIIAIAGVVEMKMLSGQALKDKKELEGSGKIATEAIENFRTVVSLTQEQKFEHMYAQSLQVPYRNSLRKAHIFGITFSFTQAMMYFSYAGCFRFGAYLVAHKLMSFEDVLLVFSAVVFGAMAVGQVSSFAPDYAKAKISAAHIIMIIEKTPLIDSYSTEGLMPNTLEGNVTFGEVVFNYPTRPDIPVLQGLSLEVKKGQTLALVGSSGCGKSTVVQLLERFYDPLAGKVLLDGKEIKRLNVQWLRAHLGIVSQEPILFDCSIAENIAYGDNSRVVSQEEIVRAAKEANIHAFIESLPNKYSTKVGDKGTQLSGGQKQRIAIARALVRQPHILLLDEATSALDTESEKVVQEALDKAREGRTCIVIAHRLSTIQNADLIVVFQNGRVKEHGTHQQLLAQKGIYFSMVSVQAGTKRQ

## CNC(=O)c1ccccc1Sc1ccc2c(/C=C/c3ccccn3)n[nH]c2c1 [AXITINIB]
[1]
  concentration at 4 h: 250 ng/g
[2]
  concentration at 4 h: 47 ng/g
[3]
  concentration at 4 h: 7 ng/g
[4]
  concentration at 4 h: 6 ng/g
[5]
  AUC(0-t) at 4 h: 4950 ng·h/mL
[6]
  AUC(0-t) at 4 h: 3950 ng·h/mL
[7]
  AUC(0-t) at 4 h: 2680 ng·h/mL
[8]
  AUC(0-t) at 4 h: 4670 ng·h/mL
[9]
  Ratio: 0.8
[10]
  Ratio: 6.3
[11]
  Ratio: 19.6
[12]
  Ratio: 1.1
[13]
  Ratio: 7.9
[14]
  Ratio: 42.4
[15]
  Drug transport: Not Active
[16]
  efflux ratio at 1 µM: 1.4
[17]
  Drug transport: Not Active
[18]
  efflux ratio at 1 µM: 5.3
[19]
  efflux ratio at 1 µM: 1.3
[20]
  Ratio: 3.4
[21]
  AUC(0-t) at 1 h: 1090 ng·h/mL
[22]
  AUC(0-t) at 1 h: 1760 ng·h/mL
[23]
  AUC(0-t) at 1 h: 950 ng·h/mL
[24]
  AUC(0-t) at 1 h: 1400 ng·h/mL
[25]
  concentration at 1 h: 80 ng/g
[26]
  concentration at 1 h: 640 ng/g
[27]
  concentration at 1 h: 1980 ng/g
[28]
  concentration at 1 h: 100 ng/g
